Measured values taken from PubChem BioAssay (NCI).
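Tested at 5 concentrations; 48 h exposure; 96-well plates; endpoints linearly interpolated, else capped at highest concentration. At the GI50, growth is halved. TGI marks complete inhibition of growth.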

Key:
Experiment in all cases: NCI-60 cell line screen, 48 h
[1] = tested on: K-562 leukemia
[2] = tested on: NCI-H226 lung
[3] = tested on: SF-268 CNS
[4] = tested on: SK-MEL-2 melanoma
[5] = tested on: SK-OV-3 ovarian
[6] = tested on: UACC-62 melanoma
[7] = tested on: U251 CNS
[8] = tested on: UACC-257 melanoma
[9] = tested on: DU-145 prostate
[10] = tested on: PC-3 prostate
[11] = tested on: SK-MEL-5 melanoma

Compound	TGI [1] [µM]	TGI [2] [µM]	TGI [3] [µM]	TGI [4] [µM]	TGI [5] [µM]	TGI [6] [µM]	TGI [7] [µM]	TGI [8] [µM]	TGI [9] [µM]	TGI [10] [µM]	TGI [11] [µM]	GI50 [3] [µM]	GI50 [9] [µM]	GI50 [1] [µM]	GI50 [10] [µM]	GI50 [11] [µM]	GI50 [5] [µM]	GI50 [8] [µM]	GI50 [6] [µM]	GI50 [4] [µM]
CC(/C=C/c1ncccc1OCCCCCC(=O)O)=N\NC1=NCCN1	> 100	> 100	> 100	> 100	> 100	> 100	–	–	–	–	–	–	–	–	–	–	–	–	–	–
CN(C)C(=S)Nc1nnc(NC23CC4CC(CC(C4)C2)C3)s1	> 100	38.4	48.5	44.7	80.1	32.6	25.3	32.5	–	–	–	–	–	–	–	–	–	–	–	–
C=C1C(=O)OC2/C=C(\C)CC/C=C(/C)CC(OC(=O)/C(=C/CO)CO)C12 (stereo not given)	> 100	–	77.5	64	> 100	33.1	47	36.3	33.1	> 100	31.2	–	–	–	–	–	–	–	–	–
C1CNCCN2CCCNCCN(C1)CC2	–	> 100	> 100	> 100	> 100	> 100	> 100	> 100	> 100	> 100	> 100	–	–	–	–	–	–	–	–	–
CS(C)(=O)=N/C=C\C(=O)C(Cl)(Cl)Cl	> 100	> 100	> 100	> 100	> 100	> 100	> 100	> 100	> 100	> 100	> 100	–	–	–	–	–	–	–	–	–
COc1ccc2c(c1)/C(=C(\C(Cl)=C(Cl)Cl)[N+](=O)[O-])N2	> 100	85.7	> 100	–	> 100	> 100	> 100	> 100	> 100	> 100	> 100	–	–	–	–	–	–	–	–	–
O=C1CCCCC/C=C2/CC[C@H](Sc3ccccc3)[C@@H]12	> 100	> 100	> 100	> 100	> 100	> 100	> 100	> 100	–	–	> 100	–	–	–	–	–	–	–	–	–
CN1CN(c2ccccc2)C2(CCNCC2)C1=O	> 100	> 100	> 100	> 100	> 100	> 100	> 100	> 100	> 100	> 100	> 100	–	–	–	–	–	–	–	–	–
CN(Cc1cnc2nc(N)nc(N)c2n1)c1ccc(C(=O)NC(CCS(=O)(=O)O)C(=O)O)cc1 (stereo not given)	–	> 100	> 100	> 100	> 100	> 100	–	> 100	–	> 100	> 100	0.972	–	–	–	–	–	–	–	–
O=C1CCc2c3c(c4c([nH]c5ccccc54)c2CC1)C(=O)NC3=O	> 100	23.7	> 100	17.1	–	42.8	> 100	19.5	42.9	70.6	5.77	–	–	–	–	–	–	–	–	–
CC(=O)OCC1C(C(C)OC(C)=O)CCC2C1CCC1(C)C(OC(C)=O)CCC21 (stereo not given)	36.8	33.6	52.5	–	–	26.3	30.5	31.9	> 100	–	30.6	–	–	–	–	–	–	–	–	–
c1ccc(Cc2cccc3cc(-c4ccc(-c5ccccc5)cc4)[nH]c23)cc1	–	> 100	> 100	> 100	> 100	> 100	> 100	> 100	> 100	> 100	> 100	–	–	–	–	–	–	–	–	–
COc1ccc(-c2cc(-c3ccccc3)n(C3OC(COC(C)=O)C(OC(C)=O)C(OC(C)=O)C3OC(C)=O)c(=S)c2C#N)cc1 (stereo not given)	> 100	23.1	58.2	–	32.9	16.4	18.7	–	23.9	32.3	19.4	–	–	–	–	–	–	–	–	–
CCOC(=O)C(Cc1ccc2c(c1)CCC2)(Cc1ccc2c(c1)CCC2)C(=O)OCC	> 100	–	> 100	> 100	> 100	–	> 100	> 100	> 100	> 100	> 100	–	–	–	–	–	–	–	–	–
NNC(N)=Nc1cccc2ccccc12	> 100	> 100	> 100	–	> 100	> 100	> 100	> 100	> 100	–	> 100	–	–	–	–	–	–	–	–	–
Cc1csc2c(P(=O)(OC(C)C)OC(C)C)c(-c3ccccc3)cn12	45.7	–	32	32.5	33	20	29.5	27.8	32.9	28.7	29.7	–	–	–	–	–	–	–	–	–
NS(=O)(=O)c1nnc(NC(=O)CCC(=O)O)s1	> 100	> 100	> 100	> 100	> 100	> 100	> 100	> 100	> 100	–	> 100	–	–	–	–	–	–	–	–	–
O=C1C=C2S[C@H]3C[C@]2(C=C1Br)c1c(c(O)c2c4c1=NCCC=4C=N2)N3	–	4.86	2.91	1.39	17.1	1.23	3.17	0.557	4.09	4.52	2.38	–	–	–	–	–	–	–	–	–
CCCCCCc1nn2c(-c3ccc(C)cc3)nnc2s1	> 100	–	> 100	> 100	> 100	> 100	> 100	> 100	> 100	> 100	> 100	–	–	–	–	–	–	–	–	–
CN1CCc2c(sc3nc(Nc4ccccc4)n(N)c(=O)c23)C1	> 100	> 100	> 100	> 100	–	> 100	–	> 100	> 100	> 100	> 100	–	–	–	–	–	–	–	–	–
COc1ccc2c(c1)/C(=C(\C(Cl)=C(\Cl)N1CCCCC1)[N+](=O)[O-])N2	> 100	> 100	> 100	–	> 100	> 100	> 100	> 100	> 100	> 100	> 100	–	–	–	–	–	–	–	–	–
Cc1cccc2c1Oc1cc(Cl)ccc1C2NC(=O)CCN1CCCCC1 (stereo not given)	32	–	83.2	–	–	30	29.5	30.5	–	30.5	30	–	–	–	–	–	–	–	–	–
COc1cc(/C=C2\C(=O)N(c3cccc(Cl)c3)C(c3ccccc3)S2(=O)=O)cc(OC)c1OC (stereo not given)	> 100	> 100	> 100	> 100	> 100	> 100	> 100	> 100	> 100	–	> 100	–	–	–	–	–	–	–	–	–

Compound	TGI [1] [µM]	TGI [2] [µM]	TGI [3] [µM]	TGI [4] [µM]	TGI [5] [µM]	TGI [6] [µM]	TGI [7] [µM]	TGI [8] [µM]	TGI [9] [µM]	TGI [10] [µM]	TGI [11] [µM]	GI50 [3] [µM]	GI50 [9] [µM]	GI50 [1] [µM]	GI50 [10] [µM]	GI50 [11] [µM]	GI50 [5] [µM]	GI50 [8] [µM]	GI50 [6] [µM]	GI50 [4] [µM]
CC1=C(C)C(=O)OC(C(C)(O)C2(O)CCC3(O)C4CC(Cl)C5(O)C(O)C=CC(=O)C5(C)C4CCC32C)C1 (stereo not given)	> 100	> 100	> 100	> 100	> 100	> 100	> 100	> 100	> 100	> 100	–	–	–	–	–	–	–	–	–	–
CN(c1c(Cl)cccc1Cl)S(=O)(=O)c1ccccc1[N+](=O)[O-]	–	> 100	> 100	> 100	> 100	> 100	> 100	> 100	> 100	> 100	–	–	–	–	–	–	–	–	–	–
C#CCNC(=O)CCC(N)C(=O)O (stereo not given)	> 100	> 100	> 100	> 100	> 100	> 100	> 100	> 100	–	–	> 100	–	–	–	–	–	–	–	–	–
CCN(CC)CCN1C(=O)c2cccc3c(-c4ccc5c(c4)ncn5C4CCCCC4)ccc(c23)C1=O	3.97	–	–	–	4.18	3.03	–	3.74	3.2	4.66	2.61	–	1.59	0.476	1.64	1.32	1.97	2.23	1.56	–
O=C1/C(=C/c2ccc(O)cc2)NC(=S)N1CN1CCCCC1	> 100	> 100	> 100	> 100	> 100	> 100	> 100	–	> 100	> 100	> 100	–	–	–	–	–	–	–	–	–
CSCCC(NC(=O)C(Cc1ccccc1)NC(=O)CNC(=O)CNC(=O)C(N)Cc1ccc(O)cc1)C(=O)O (stereo not given)	> 100	–	> 100	> 100	> 100	> 100	> 100	> 100	–	–	> 100	–	–	–	–	–	–	–	–	–
CC1=NN(c2nc(N)nc(CS(C)(=O)=O)n2)C(C)(C)C1	> 100	–	> 100	> 100	> 100	> 100	> 100	> 100	> 100	> 100	> 100	–	–	–	–	–	–	–	–	–
O=C(N/N=C(/COc1cccc(Cl)c1)N=Cc1ccncc1)c1ccncc1	> 100	> 100	> 100	> 100	> 100	> 100	> 100	> 100	> 100	> 100	–	–	–	–	–	–	–	–	–	–
Clc1cc2nc(C3CCCO3)[nH]c2cc1Cl (stereo not given)	> 100	> 100	> 100	> 100	> 100	> 100	> 100	> 100	–	> 100	> 100	–	–	–	–	–	–	–	–	–
O=C(N=Nc1ccc([N+](=O)[O-])cc1)NNc1ccc([N+](=O)[O-])cc1	45.8	51	80.1	28.9	–	22.2	59.7	67.5	18.4	52	31.2	–	–	–	–	–	–	–	–	–
CSC1=N/C(=C\c2cccs2)C(=O)N1CN1CCOCC1	> 100	> 100	> 100	> 100	> 100	> 100	> 100	–	> 100	> 100	> 100	–	–	–	–	–	–	–	–	–
COCCO	> 100	> 100	> 100	> 100	> 100	> 100	> 100	> 100	–	–	> 100	–	–	–	–	–	–	–	–	–
C=C1CC(OC(C)=O)/C=C(/C)CCC(C(C)(C)O)CC1O (stereo not given)	–	> 100	> 100	> 100	> 100	> 100	> 100	> 100	> 100	> 100	> 100	–	–	–	–	–	–	–	–	–
COc1ccc2nc(-c3ccc(OC(=O)N(C)C)cc3)cn2c1	> 100	> 100	> 100	> 100	> 100	> 100	> 100	> 100	–	> 100	> 100	–	–	–	–	–	–	–	–	–
O=[N+]([O-])c1cc2n[nH]nc2c2nonc12	> 100	40.9	> 100	> 100	> 100	–	> 100	63	> 100	> 100	24.7	–	–	–	–	–	–	–	–	–
CCN(CC)CCNc1ccc([N+](=O)[O-])c2nc3ccccc3c(N)c12	1.75	5.62	3.79	0.955	–	4.07	> 10	7.37	> 10	1.74	1.1	–	–	–	–	–	–	–	–	–
CN(C)c1nc(N(C)C)nc(N(C)CN(C)c2ccccc2)n1	> 100	> 100	> 100	> 100	> 100	> 100	> 100	> 100	–	–	> 100	–	–	–	–	–	–	–	–	–
NC(=O)c1cnc2sc3ccccc3n2c1=O	> 100	> 100	> 100	> 100	> 100	> 100	–	> 100	> 100	> 100	> 100	–	–	–	–	–	–	–	–	–
Cc1ccc2nc3c(C(=O)NCCN(C)C)cccc3cc2c1	7.83	3.6	2.52	5.3	6.66	6.77	11.7	4.56	–	–	3.41	–	–	–	–	–	–	–	–	–
C=CCCCCOC1C=CC(OC(C)=O)C(COC(C)=O)O1 (stereo not given)	–	> 100	> 100	> 100	> 100	> 100	> 100	> 100	> 100	> 100	> 100	–	–	–	–	–	–	–	–	–
CSc1ccc2c(c1)c(CCN)c(C)n2Cc1ccc(Cl)c(Cl)c1	–	–	–	3.34	3.09	–	–	3.74	3.21	3.11	–	–	1.73	–	1.67	–	1.69	2.03	–	1.74
NCCCNCCSSCc1ccccc1CSSCCNCCCN	> 100	–	> 100	> 100	> 100	> 100	> 100	> 100	–	–	> 100	–	–	–	–	–	–	–	–	–
